# Results from patent US8802597B2, “Herbicidal pyrimidines” (E I du Pont de Nemours and Company, priority 2003, dated 2014).
# Where two headings read alike, the source gives them in different places.
# What was measured:
# Test in all cases: Test C pre/postemergence
# Format in all cases: in vivo
# [1] = system: woolly cupgrass (Eriochloa villosa); settings: Eriochloa villosa; for pest or weed control at 62 g/ha: 62 g ai/ha
# Summary of the method: (§1)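 Greenhouse pot test: seeds treated preemergence, or plants at 2–18 cm (1- to 4-leaf stage) treated postemergence, with compound in non-phytotoxic solvent plus surfactant. Visual rating versus untreated controls after 12–14 days, scale 0 (no effect) to 100 (complete control); dash means not tested.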
# [2] = system: kochia (Kochia scoparia); settings: Bassia scoparia; for pest or weed control at 31 g/ha: 31 g ai/ha; for pest or weed control at 62 g/ha: 62 g ai/ha; for pest or weed control at 125 g/ha: 125 g ai/ha
# Summary of the method: as §1
# [3] = system: velvetleaf (Abutilon theophrasti); settings: Abutilon theophrasti; for pest or weed control at 31 g/ha: 31 g ai/ha; for pest or weed control at 62 g/ha: 62 g ai/ha
# Summary of the method: as §1
# [4] = system: eastern black nightshade (Solanum ptycanthum); settings: Solanum, pre-emergence, Preemergence, scale 0 to 100, 0 no effect, 100 complete control, read-out: Plant response rating, Nightshade
# Summary of the method: as §1
# [5] = system: pigweed (Amaranthus retroflexus); settings: Amaranthus retroflexus; for pest or weed control at 31 g/ha: 31 g ai/ha; for pest or weed control at 62 g/ha: 62 g ai/ha
# Summary of the method: as §1
# [6] = system: yellow nutsedge (Cyperus esculentus); settings: Cyperus; for pest or weed control at 31 g/ha: 31 g ai/ha; for pest or weed control at 62 g/ha: 62 g ai/ha
# Summary of the method: as §1
# [7] = system: common (oilseed) sunflower (Helianthus annuus); settings: Helianthus annuus, pre-emergence, Preemergence, scale 0 to 100, 0 no effect, 100 complete control, read-out: Plant response rating, Sunflower
# Summary of the method: as §1
# [8] = post-emergence, Postemergence, read-out: Plant response rating (scale of 0 to 100), Kochia
# [9] = pre-emergence, Preemergence, scale 0 to 100, 0 no effect, 100 complete control, read-out: Plant response rating, Kochia
# [10] = post-emergence, Postemergence, read-out: Plant response rating (scale of 0 to 100), Velvetleaf
# [11] = pre-emergence, Preemergence, scale 0 to 100, 0 no effect, 100 complete control, read-out: Plant response rating, Velvetleaf
# [12] = post-emergence, Postemergence, read-out: Plant response rating (scale of 0 to 100), Pigweed
# [13] = pre-emergence, Preemergence, scale 0 to 100, 0 no effect, 100 complete control, read-out: Plant response rating, Pigweed
# [14] = post-emergence, Postemergence, read-out: Plant response rating (scale of 0 to 100), Nutsedge, Yellow
# [15] = pre-emergence, Preemergence, scale 0 to 100, 0 no effect, 100 complete control, read-out: Plant response rating, Nutsedge, Yellow
smiles,measurement,setting,value
"Nc1nc(C2CC2)nc(C(=O)OCc2ccccc2)c1Cl [Compound 78, phenylmethyl 6-amino-5-chloro-2-cyclopropyl-4-pyrimidinecarboxylate]",pest or weed control at 62 g/ha,"[1]; post-emergence, Postemergence, read-out: Plant response rating (scale of 0 to 100), Cupgrass, Woolly",55%
same,pest or weed control at 250 g/ha,"[1]; post-emergence, Postemergence, 250 g ai/ha, scale 0 to 100, read-out: Plant response rating, Cupgrass, Woolly",90%
same,pest or weed control at 16 g/ha,"[1]; pre-emergence, Preemergence, 16 g ai/ha, scale 0 to 100, 0 no effect, 100 complete control, read-out: Plant response rating, Cupgrass, Woolly",0%
same,pest or weed control at 31 g/ha,"[1]; pre-emergence, Preemergence, 31 g ai/ha, scale 0 to 100, 0 no effect, 100 complete control, read-out: Plant response rating, Cupgrass, Woolly",0%
same,pest or weed control at 62 g/ha,"[1]; pre-emergence, Preemergence, scale 0 to 100, 0 no effect, 100 complete control, read-out: Plant response rating, Cupgrass, Woolly",0%
same,pest or weed control at 125 g/ha,"[1]; pre-emergence, Preemergence, 125 g ai/ha, scale 0 to 100, read-out: Plant response rating, Cupgrass, Woolly",10%
same,pest or weed control at 31 g/ha,[2]; [8],90%
same,pest or weed control at 62 g/ha,[2]; [8],90%
same,pest or weed control at 125 g/ha,"[2]; post-emergence, Postemergence, scale 0 to 100 (0 no effect, 100 complete control), read-out: Kochia plant response rating",95%
same,pest or weed control at 250 g/ha,"[2]; post-emergence, Postemergence, 250 g ai/ha, scale 0 to 100, read-out: Plant response rating, Kochia",95%
same,pest or weed control at 16 g/ha,"[2]; pre-emergence, Preemergence, 16 g ai/ha, scale 0 to 100, 0 no effect, 100 complete control, read-out: Plant response rating, Kochia",70%
same,pest or weed control at 31 g/ha,[2]; [9],80%
same,pest or weed control at 62 g/ha,[2]; [9],100%
same,pest or weed control at 125 g/ha,"[2]; pre-emergence, Preemergence, scale 0 to 100, read-out: Plant response rating, Kochia",100%
same,pest or weed control at 31 g/ha,[3]; [10],50%
same,pest or weed control at 62 g/ha,[3]; [10],80%
same,pest or weed control at 125 g/ha,"[3]; post-emergence, Postemergence, 125 g ai/ha, scale 0 to 100 (0 no effect, 100 complete control), read-out: Velvetleaf plant response rating",95%
same,pest or weed control at 250 g/ha,"[3]; post-emergence, Postemergence, 250 g ai/ha, scale 0 to 100, read-out: Plant response rating, Velvetleaf",100%
same,pest or weed control at 16 g/ha,"[3]; pre-emergence, Preemergence, 16 g ai/ha, scale 0 to 100, 0 no effect, 100 complete control, read-out: Plant response rating, Velvetleaf",10%
same,pest or weed control at 31 g/ha,[3]; [11],55%
same,pest or weed control at 62 g/ha,[3]; [11],70%
same,pest or weed control at 16 g/ha,[4]; 16 g ai/ha,0%
same,pest or weed control at 31 g/ha,[4]; 31 g ai/ha,30%
same,pest or weed control at 62 g/ha,[4]; 62 g ai/ha,60%
same,pest or weed control at 31 g/ha,[5]; [12],50%
same,pest or weed control at 62 g/ha,[5]; [12],80%
same,pest or weed control at 125 g/ha,"[5]; post-emergence, Postemergence, 125 g ai/ha, scale 0 to 100 (0 no effect, 100 complete control), read-out: Pigweed plant response rating",95%
same,pest or weed control at 250 g/ha,"[5]; post-emergence, Postemergence, 250 g ai/ha, scale 0 to 100, read-out: Plant response rating, Pigweed",100%
same,pest or weed control at 16 g/ha,"[5]; pre-emergence, Preemergence, 16 g ai/ha, scale 0 to 100, 0 no effect, 100 complete control, read-out: Plant response rating, Pigweed",55%
same,pest or weed control at 31 g/ha,[5]; [13],60%
same,pest or weed control at 62 g/ha,[5]; [13],70%
same,pest or weed control at 31 g/ha,[6]; [14],0%
same,pest or weed control at 62 g/ha,[6]; [14],0%
same,pest or weed control at 125 g/ha,"[6]; post-emergence, Postemergence, 125 g ai/ha, scale 0 to 100 (0 no effect, 100 complete control), read-out: Nutsedge, Yellow plant response rating",0%
same,pest or weed control at 250 g/ha,"[6]; post-emergence, Postemergence, 250 g ai/ha, scale 0 to 100, read-out: Plant response rating, Nutsedge, Yellow",0%
same,pest or weed control at 16 g/ha,"[6]; pre-emergence, Preemergence, 16 g ai/ha, scale 0 to 100, 0 no effect, 100 complete control, read-out: Plant response rating, Nutsedge, Yellow",0%
same,pest or weed control at 31 g/ha,[6]; [15],0%
same,pest or weed control at 62 g/ha,[6]; [15],0%
same,pest or weed control at 16 g/ha,[7]; 16 g ai/ha,50%
same,pest or weed control at 31 g/ha,[7]; 31 g ai/ha,70%
same,pest or weed control at 62 g/ha,[7]; 62 g ai/ha,100%
